The record followed here is paper PMC9278491, “Filarial nematode phenotypic screening cascade to identify compounds with anti-parasitic activity for drug discovery optimization” (International Journal for Parasitology: Drugs and Drug …, 2022).

Molecules are shown by their SMILES. “And” between values parts separate entries of the source, which are not always exact repeats. Equal entries are not always repeated. Where two headings read alike, the source gives them in different places.

Experiment [1] has as its system O. gutturosa adult male worms. Kind of experiment: O. gutturosa adult worm 5-day motility assay. More on the design: species or system Onchocerca gutturosa. The following applies: 5 days in vitro culture, top concentration 12.5 μM, read-out: O. gutturosa EC50 (motility inhibition, adult worms). The text has this: O. gutturosa adult male worms were obtained postmortem from freshly slaughtered cattle. The worms were dissected from the nuchal ligament connective tissues of naturally infected cattle in Gambia, West Africa; The West Africa Livestock Innovation Centre (WALIC), Banjul, purchased material from local butchers for use in this study.
Using a dissecting microscope and micropipette, microfilariae were then transferred in groups of 5 into each well of a 96-well plate (Fisher Scientific, UK). The adult O. gutturosa worms were transferred individually to each well of a sterile 24-well (2 mL) plate (Fisher Scientific, UK) and maintained for at least 24 h in culture before use. […]
(§1) Only normally active worms were used for the test and all assays were conducted at 37 °C and 5% CO2. […] The activity levels of O. gutturosa adult worms were assessed by the measurement of mean motility scores on a scale of 0 (immotile) to 10 (maximum) every 24 h, terminating at 120 h, using an Olympus inverted microscope. For O. lienalis microfilariae, the motility of the microfilariae was classified using an Olympus inverted microscope as normal (continuous rapid sinuous movement, scored as 3), marginally impaired (slower than normal movement, scored as 2), severely impaired (scored as 1), or immotile (scored as 0) after 120 h of drug exposure. […]

For the next experiment, the system named is O. gutturosa adult worms. Put plainly: O. gutturosa adult worm viability, MTT/formazan colorimetry. Details: species or system Onchocerca gutturosa. The following applies: day 5, vs untreated control. Here is the method: The EC50 values were calculated using a sigmoidal interpolation in Graph Pad Prisme 7 data analysis software. The test drug is considered active when a motility reduction of ≥50% is observed by comparison to the untreated controls. In addition, biochemical evaluation of O. gutturosa adult worm viability was assessed using MTT/formazan colorimetry. The MTT assay was carried out after the last motility reading (120 h). Single intact worms were placed in each well of a 48-well plate (Fisher Scientific, UK) containing 0.5 mL of 0.5 mg/mL MTT (Sigma, UK) in PBS solution, and then incubated for 30 min at 37 °C. The worms were removed, blotted carefully, and individually transferred to separate wells of a 96-well microtiter plate, each containing 200 μL of DMSO to solubilize the formazan. After 1 h the plate was gently agitated to disperse the color evenly and the absorbance value (optical density, OD) of the resulting formazan solution was determined at 490 nm using an absorbance microplate reader (Biotek ELx800, Fisher Scientific, UK). The results are expressed as the mean OD per drug concentration. Inhibition of formazan formation is correlated with worm damage or death.
Supplementary Figure S4. Ex vivo MTT worm viability screening against adult O. gutturosa. O. gutturosa adult worm viability was assessed using MTT/formazan colorimetry on day 5. […]

The subject of experiment [2] is O. lienalis microfilariae. Put plainly: O. lienalis microfilariae 5-day motility assay. More on the design: species or system Onchocerca lienalis. The following applies: 5 days in vitro culture, top concentration 12.5 μM; read-out: O. lienalis EC50 (motility inhibition, microfilariae). Here is the method:
A single large batch of O. lienalis microfilariae was obtained post mortem from the peri-umbilical skin area of freshly slaughtered, naturally infected cattle in the UK following the procedure described by ([Tagboto and Townson, 1991]) and the references therein. The extracted microfilariae were cryopreserved using a 2-step incubation technique with ethanediol as a cryoprotectant ([Ham et al., 1981]), stored in liquid nitrogen and thawed when required for immediate use.
Using a dissecting microscope and micropipette, microfilariae were then transferred in groups of 5 into each well of a 96-well plate (Fisher Scientific, UK). […]
as §1
The EC50 values were calculated using a sigmoidal interpolation in Graph Pad Prisme 7 data analysis software. […]

The test system of a further experiment is adult L. sigmodontis. Kind of experiment: L. sigmodontis murine model of filariasis (adult worm burden). The class given is in vivo, Litomosoides sigmodontis in female BALB/c mice. Particulars: BALB/c mice, 2 mg/kg, QD SC, 5 days, mean vs mean of vehicle controls.

The EC50 is the concentration needed to bring the measured effect to its halfway point. For `Cl.Cl.NCCS[As](SCCN)c1ccc(Nc2nc(N)nc(N)n2)cc1` [Immiticide, melarsomine dihydrochloride], the EC50 in experiment [1] (listed as Imiticide) turned out to be 600 nM; in experiment [1], 590 nM; in experiment [2], 800 nM. For the same molecule, the “O. gutturosa MTT % reduction at 12.5 μM” value in the experiment on O. gutturosa adult worms came out at 96.3%.

`COC(=O)Nc1nc2cc(C(=O)c3ccc(F)cc3)ccc2[nH]1` [Flubendazole, flubendazole]: the “Reduction Adult Worms” value with adult L. sigmodontis is 98.4% (P = 0.024) and 100% (P = 0.007).
